From US11679168B2, “Caspase-3-triggered molecular self-assembling PET probes and uses thereof” (The Board of Trustees of the Leland Stanford Junior …, priority 2018, dated 2023)

Assays:
H460 cells = test: Radiotracer uptake in H460 cells; type: cell-based, human
Procedure: (§1) Temporal changes in cell-associated radioactivity in drug-treated cells or vehicle cells were measured with [18F]-C-SNAT4. Data are means±SD (n=3 per group). *, P<0.05; **, P<0.01; ***, P<0.005; *****, P<0.0001.
FIG. 22 illustrates that a mixture strategy enhances [^18F]-C-SNAT4 uptake in radiation (a single dose at 10 Gy) treated cells and vehicle human non-small cell lung cancer H460 cells. 40 μCi of mixture tracer [^18F]/[^19F]-C-SNAT4 (at ratio of 1:80 or 1:200) or 40 μCi [^18F]-C-SNAT4 were incubated in cells for 1 hour at 24 h post-IR treatment and radioactivity of [^18F] was measured using γ-counter. Data are means±SD (n=3 each group). *, P<0.05; **, P<0.01; ***, P<0.001.
(§2) Radiotracer uptake in cells: H460 and H1299 cells (2×10^5) were plated in 6-well cell culture plates over night before [^18F]-C-SNAT4 uptake analysis. […] After 24 h treatment, fresh, prewarmed RPMI Medium 1640 containing 1.48 MBq (40 μCi) [^18F]-C-SNAT4 was added to individual wells (1 ml/well; 13.3 pmol). At post 10, 30, 60 min, medium was removed, cells were lifted by trypsinization, and washed three-times with cold PBS. Radioactivity contained in cell pellets was measured using a gamma counter, with counts normalized to total protein concentration as determined by cell digestion using RIPA buffer followed by protein quantitation by the Bradford method. The final radiotracer [^18F]-C-SNAT4 uptake concentration was expressed as μM of % uptake/mg protein. Results were normalized to a vehicle control (PBS for [^18F]-C-SNAT4 experiments at different time-points) which was washed.

H1299 cells = test: Radiotracer uptake in H1299 cells; type: cell-based, human
Procedure: as §1, §2

[1] = Blood half-life in healthy nude mice after intravenous injection; type: in vivo
Description: FIG. 21 illustrates blood half-life in healthy nude mice after intravenous injection of [^18F]-C-SNAT4 (n=4).

[2] = Stability of [18F]-C-SNAT4 in mouse serum (HPLC); type: in vitro ADME; conditions: 37° C., over 2 h incubation
Procedure: FIG. 1B illustrates the serum stability of [^18F]-C-SNAT4 in mouse serum. [^18F]-C-SNAT4 was incubated in serum at 37° C. and analyzed by HPLC.
At 24 h post treatment, mixture tracer of [^19F]-C-SNAT4 was injected with [^18F]-C-SNAT4 (mixture ratio at 1:200) through the tail vein for PET imaging (FIG. 24A-24C). For treated animal, tumor uptake of mixture tracer [^18F]/[^19F]-C-SNAT4 and [^18F]-C-SNAT4 were 2.9±0.3% ID/cc and 1.7±0.1% ID/cc, respectively at 85 min post injection. There was 1.7-fold increase of radioactivity in the mixture-treated mice. Overall, the uptake of [^18F]-C-SNAT4 was increased both in radiation and drug-treated tumors. In contrast, the tumor uptake of [^18F]/[^19F]-C-SNAT4 (ratio at 1:200) and [^18F]/[^19F]-C-SNAT4 (ratio at 1:80) in untreated tumor was 0.5±0.2% ID/cc and 0.3±0.2% ID/cc, respectively at 85 min after injection (FIG. 25A-25C), followed by a rapid signal decay back to baseline within a few minutes. There were no changes compared to the uptake of [^18F]-C-SNAT4 (0.4±0.1% ID/cc). […] The sample was centrifuged at 13,400 g for 10 min and […] of the resultant supernatant was diluted with […] of water and analyzed on HPLC. % intact tracer was calculated as %=(peak area for tracer/total peak area on the HPLC chromatogram)×100.

## CCSSCC(NC(=O)C(CC(=O)O)NC(=O)C(NC(=O)C(CCC(=O)O)NC(=O)C(CC(=O)O)NC(C)=O)C(C)C)C(=O)NCC(=O)NC(Cc1cn(CCOCCOCCOCC[18F])nn1)C(=O)NCc1ccc(C(=O)NCCCOc2cnc(C#N)nc2)cc1 (centres unmarked) [[^18F]-C-SNAT4]
H460 cells; H460, 10 min post incubation
  uptake of high dose-treated cells relative to control cells: 5.8 fold
H460 cells; H460, 60 min post incubation
  uptake of low dose-treated cells relative to control cells: 2.4 fold
H460 cells; IR-treated (10 Gy, 24 h) H460, hot tracer only, 1 h
  cell uptake: 3.9±0.4 % uptake/mg protein
H460 cells; cisplatin high dose (13.5 μM, 24 h) treated H460, 10 min post incubation
  cell uptake: 2.3 % radioactivity/mg protein
H460 cells; cisplatin low dose (4.5 μM, 24 h) treated H460, 10 min
  cell uptake: 0.7±0.1 % uptake/mg protein
H460 cells; cisplatin low dose (4.5 μM, 24 h) treated H460, 60 min
  cell uptake: 1.45±0.11 % radioactivity/mg protein
H460 cells; control H460 cells of high dose experiment, 10 min post incubation
  cell uptake: 0.4±0.1 % uptake/mg protein
H460 cells; non-treated H460, hot tracer only
  cell uptake: 2.8±0.3 % uptake/mg protein
H460 cells; untreated H460, 10 min
  cell uptake: 0.5±0.1 % radioactivity/mg protein
H460 cells; untreated H460, 60 min
  cell uptake: 0.4 % uptake/mg protein
H1299 cells; H1299, high dose, 60 min
  difference in uptake, drug-treated versus untreated: no difference
H1299 cells; cisplatin high dose (13.5 μM, 24 h) treated H1299, 30 min post incubation
  cell uptake: 4.0±0.3 % radioactivity/mg protein
H1299 cells; cisplatin low dose (4.5 μM, 24 h) treated H1299, 60 min
  cell uptake: 0.3±0.1 % uptake/mg protein
H1299 cells; control group H1299 (high dose experiment), 30 min post incubation
  cell uptake: 2.5±0.6 % radioactivity/mg protein
H1299 cells; naïve H1299 (low dose experiment), 60 min
  cell uptake: 0.2±0.1 % uptake/mg protein
[1]; by 2 h after administration
  elimination from the blood: nearly complete elimination
[1]; healthy nude mice, after 5 min
  peak blood concentration: 15.21±2.66 % ID/g
[1]; healthy nude mice, i.v.
  blood life: 0.4 ± 0.1 h
[1]; healthy nude mice, i.v., n=4
  blood half-life: 21.6 ± 6.6 min
[2]
  percentage of [18F]-C-SNAT4 remained: 77.2%
